According to PubChem BioAssay (NCI):
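Where inhibition never reached the appropriate level, the endpoint shown equals the highest concentration tested. Otherwise, values were interpolated linearly from a five-concentration, 48-hour dose response in 96-well plates. GI50 = concentration required for 50% inhibition of growth. At the TGI there is no net growth.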

Columns and labels:
Experiment in all cases: growth of human tumour cells (NCI), 48 h
SN12C renal = tested on: SN12C renal
M14 melanoma = tested on: M14 melanoma
HL-60(TB) leukemia = tested on: HL-60(TB) leukemia
SK-MEL-5 melanoma = tested on: SK-MEL-5 melanoma
OVCAR-3 ovarian = tested on: OVCAR-3 ovarian
BT-549 breast = tested on: BT-549 breast
MDA-MB-231 breast = tested on: MDA-MB-231 breast
A549 NSCLC = tested on: A549 NSCLC
HT29 colon = tested on: HT29 colon
DU-145 prostate = tested on: DU-145 prostate
SK-MEL-2 melanoma = tested on: SK-MEL-2 melanoma
U251 CNS = tested on: U251 CNS
HCT-15 colon = tested on: HCT-15 colon
UO-31 renal = tested on: UO-31 renal
OVCAR-8 ovarian = tested on: OVCAR-8 ovarian
MCF7 breast = tested on: MCF7 breast
HOP-62 NSCLC = tested on: HOP-62 NSCLC
K-562 leukemia = tested on: K-562 leukemia
HS 578T breast = tested on: HS 578T breast
MOLT-4 leukemia = tested on: MOLT-4 leukemia
OVCAR-5 ovarian = tested on: OVCAR-5 ovarian
PC-3 prostate = tested on: PC-3 prostate
COLO 205 colon = tested on: COLO 205 colon
CCRF-CEM leukemia = tested on: CCRF-CEM leukemia
HCC-2998 colon = tested on: HCC-2998 colon
RXF 393 renal = tested on: RXF 393 renal
HOP-92 NSCLC = tested on: HOP-92 NSCLC
SNB-19 CNS = tested on: SNB-19 CNS
NCI-H522 lung = tested on: NCI-H522 lung
SF-295 CNS = tested on: SF-295 CNS
A498 renal = tested on: A498 renal
T-47D breast = tested on: T-47D breast
UACC-257 melanoma = tested on: UACC-257 melanoma
NCI-H460 lung = tested on: NCI-H460 lung
NCI/ADR-RES ovarian = tested on: NCI/ADR-RES ovarian
RPMI-8226 leukemia = tested on: RPMI-8226 leukemia
SR leukemia = tested on: SR leukemia
TK-10 renal = tested on: TK-10 renal
EKVX NSCLC = tested on: EKVX NSCLC
SNB-75 CNS = tested on: SNB-75 CNS
IGROV1 ovarian = tested on: IGROV1 ovarian
SF-539 CNS = tested on: SF-539 CNS
CAKI-1 renal = tested on: CAKI-1 renal
SK-MEL-28 melanoma = tested on: SK-MEL-28 melanoma
MALME-3M melanoma = tested on: MALME-3M melanoma
OVCAR-4 ovarian = tested on: OVCAR-4 ovarian
KM12 colon = tested on: KM12 colon
LOX IMVI melanoma = tested on: LOX IMVI melanoma
SW-620 colon = tested on: SW-620 colon
HCT-116 colon = tested on: HCT-116 colon
UACC-62 melanoma = tested on: UACC-62 melanoma
786-0 renal = tested on: 786-0 renal
MDA-MB-435 = tested on: MDA-MB-435
SF-268 CNS = tested on: SF-268 CNS

## CC1=C2C(=C[C@@](C)(COC(=O)c3ccc(S(=O)(=O)F)cc3)[C@@H]2OC(=O)c2ccc(S(=O)(=O)F)cc2)C(=O)[C@](C)(O)C12CC2
SN12C renal
  GI50: 1.73 µM
  TGI: 11.5 µM
M14 melanoma
  GI50: 1.36 µM
  TGI: 3.32 µM
HL-60(TB) leukemia
  GI50: 0.433 µM
  TGI: 3.14 µM
SK-MEL-5 melanoma
  GI50: 1.48 µM
  TGI: 2.92 µM
OVCAR-3 ovarian
  GI50: 0.549 µM
  TGI: 3.9 µM
BT-549 breast
  GI50: 1.26 µM
  TGI: 3.01 µM
MDA-MB-231 breast
  GI50: 1.54 µM
  TGI: 7.41 µM
A549 NSCLC
  GI50: 3.04 µM
  TGI: 9.27 µM
HT29 colon
  GI50: 0.406 µM
  TGI: 6.4 µM
DU-145 prostate
  GI50: 0.373 µM
  TGI: 5.48 µM
SK-MEL-2 melanoma
  GI50: 1.76 µM
  TGI: 3.41 µM
U251 CNS
  GI50: 1.62 µM
  TGI: 5.42 µM
HCT-15 colon
  GI50: 0.439 µM
  TGI: 4.42 µM
UO-31 renal
  GI50: 0.815 µM
  TGI: 3.22 µM
OVCAR-8 ovarian
  GI50: 0.631 µM
  TGI: 4.01 µM
MCF7 breast
  GI50: 0.342 µM
  TGI: 3.96 µM
HOP-62 NSCLC
  GI50: 1.46 µM
  TGI: 5.88 µM
K-562 leukemia
  GI50: 0.733 µM
  TGI: 13 µM
HS 578T breast
  GI50: 2.37 µM
  TGI: 6.63 µM
MOLT-4 leukemia
  GI50: 1.01 µM
  TGI: 8.73 µM
OVCAR-5 ovarian
  GI50: 0.558 µM
  TGI: 4.33 µM
PC-3 prostate
  GI50: 1.07 µM
  TGI: 11.3 µM
COLO 205 colon
  GI50: 0.638 µM
  TGI: 2.25 µM
CCRF-CEM leukemia
  GI50: 2.28 µM
  TGI: 15.3 µM
HCC-2998 colon
  GI50: 1.31 µM
  TGI: 3.06 µM
RXF 393 renal
  GI50: 0.337 µM
  TGI: 0.965 µM
HOP-92 NSCLC
  GI50: 2.11 µM
  TGI: 5.62 µM
SNB-19 CNS
  GI50: 2.54 µM
  TGI: 14.2 µM
NCI-H522 lung
  GI50: 0.474 µM
  TGI: 2.1 µM
SF-295 CNS
  GI50: 2.4 µM
  TGI: 7.63 µM
A498 renal
  GI50: 1.82 µM
  TGI: 4.29 µM
T-47D breast
  GI50: 1.23 µM
  TGI: 4.5 µM
UACC-257 melanoma
  GI50: 1.88 µM
  TGI: 3.69 µM
NCI-H460 lung
  GI50: 0.206 µM
  TGI: 0.48 µM
NCI/ADR-RES ovarian
  GI50: 0.698 µM
  TGI: 9.63 µM
RPMI-8226 leukemia
  GI50: 3.34 µM
  TGI: 17.5 µM
SR leukemia
  GI50: 0.48 µM
  TGI: 10.2 µM
TK-10 renal
  GI50: 2.75 µM
  TGI: 6.87 µM
EKVX NSCLC
  GI50: 3.04 µM
  TGI: 9.33 µM
SNB-75 CNS
  GI50: 1.35 µM
  TGI: 2.66 µM
IGROV1 ovarian
  GI50: 0.478 µM
  TGI: 6.42 µM
SF-539 CNS
  GI50: 1.56 µM
  TGI: 3.96 µM
CAKI-1 renal
  GI50: 0.466 µM
  TGI: 10.8 µM
SK-MEL-28 melanoma
  GI50: 1.71 µM
  TGI: 3.88 µM
MALME-3M melanoma
  GI50: 1.16 µM
  TGI: 2.94 µM
OVCAR-4 ovarian
  GI50: 1.78 µM
  TGI: 7.51 µM
KM12 colon
  GI50: 2.95 µM
  TGI: 12.7 µM
LOX IMVI melanoma
  GI50: 1.15 µM
  TGI: 6.38 µM
SW-620 colon
  GI50: 0.607 µM
  TGI: 10.2 µM
HCT-116 colon
  GI50: 0.319 µM
  TGI: 1.92 µM
UACC-62 melanoma
  GI50: 1.64 µM
  TGI: 4 µM
786-0 renal
  GI50: 1.4 µM
  TGI: 4.68 µM
MDA-MB-435
  GI50: 1.48 µM
  TGI: 3.71 µM
SF-268 CNS
  GI50: 0.705 µM
  TGI: 9.1 µM
